Data: the NIST ThermoML archive (doi:10.1016/j.tca.2011.08.025)

Experiment: molar heat capacity at constant pressure
Conditions: 101.33 kPa, Crystal, Relaxation calorimetry

[Al] [aluminum]
Conditions | molar heat capacity at constant pressure [J/K/mol]
5.284 K | 0.011
9.67 K | 0.035
14.08 K | 0.085
18.45 K | 0.181
22.82 K | 0.341
27.12 K | 0.602
31.49 K | 0.992
35.83 K | 1.526
40.18 K | 2.149
44.52 K | 2.841
48.85 K | 3.64
53.19 K | 4.446
57.52 K | 5.317
61.85 K | 6.177
66.18 K | 7.052
70.51 K | 7.917
74.83 K | 8.774
79.16 K | 9.582
83.49 K | 10.38
87.82 K | 11.08
92.15 K | 11.77
96.47 K | 12.46
100.7 K | 13.15
105.1 K | 13.74
109.4 K | 14.29
113.7 K | 14.88
118 K | 15.37
122.4 K | 15.87
126.7 K | 16.34
131 K | 16.78
135.3 K | 17.22
139.7 K | 17.63
144 K | 17.97
148.3 K | 18.36
152.6 K | 18.61
156.9 K | 18.93
161.2 K | 19.21
165.6 K | 19.46
169.9 K | 19.74
174.2 K | 20.03
178.5 K | 20.29
182.8 K | 20.49
187.1 K | 20.74
191.4 K | 20.96
195.7 K | 21.15
200.1 K | 21.31
204.4 K | 21.47
208.7 K | 21.66
213 K | 21.83
217.3 K | 22.01
221.7 K | 22.2
226 K | 22.34
230.3 K | 22.46
234.6 K | 22.58
238.9 K | 22.73
243.3 K | 22.82
247.6 K | 22.99
251.9 K | 23.05
256.2 K | 23.21
260.5 K | 23.34
264.9 K | 23.48
269.2 K | 23.61
273.5 K | 23.7
277.8 K | 23.73
282.1 K | 23.82
286.4 K | 23.93
290.8 K | 24.02
295.1 K | 24.12
299.4 K | 24.14
303.8 K | 24.21

[Nd] [neodymium]
Conditions | molar heat capacity at constant pressure [J/K/mol]
2.151 K | 0.8396
2.367 K | 1.016
2.581 K | 1.201
2.795 K | 1.394
3.01 K | 1.604
3.226 K | 1.824
3.438 K | 2.061
3.649 K | 2.3
3.86 K | 2.548
4.072 K | 2.809
4.282 K | 3.093
4.49 K | 3.38
4.705 K | 3.673
4.913 K | 3.971
5.122 K | 4.282
5.177 K | 4.343
5.328 K | 4.571
5.524 K | 4.815
5.736 K | 5.023
5.948 K | 5.221
6.156 K | 5.44
6.362 K | 5.633
6.569 K | 5.743
6.774 K | 5.889
6.98 K | 6.064
7.186 K | 6.234
7.391 K | 6.437
7.596 K | 6.646
7.801 K | 6.846
8.006 K | 7.013
8.204 K | 6.953
8.407 K | 6.62
8.613 K | 6.23
8.819 K | 5.945
9.025 K | 5.776
9.228 K | 5.667
9.431 K | 5.598
9.437 K | 5.599
9.634 K | 5.571
9.84 K | 5.554
10.04 K | 5.573
10.2 K | 5.561
10.39 K | 5.603
10.6 K | 5.69
10.81 K | 5.744
11.01 K | 5.812
11.21 K | 5.88
11.41 K | 5.952
11.63 K | 6.046
11.84 K | 6.143
12.03 K | 6.237
12.24 K | 6.337
12.44 K | 6.442
12.66 K | 6.573
12.86 K | 6.675
13.06 K | 6.796
13.26 K | 6.922
13.47 K | 7.055
13.68 K | 7.208
13.77 K | 7.145
13.88 K | 7.299
14.1 K | 7.441
14.28 K | 7.621
14.48 K | 7.747
14.69 K | 7.885
14.92 K | 8.025
15.12 K | 8.197
15.23 K | 8.285
15.32 K | 8.377
15.77 K | 8.706
16.3 K | 9.115
16.83 K | 9.61
17.36 K | 10.08
17.88 K | 10.46
18.09 K | 10.52
18.42 K | 10.87
18.95 K | 11.22
19.48 K | 11.63
20.09 K | 11.62
20.59 K | 11.44
21.1 K | 10.32
21.61 K | 10.49
22.17 K | 11.13
22.39 K | 11.25
26.7 K | 13.57
31.01 K | 15.8
35.3 K | 17.93
39.6 K | 19.66
43.89 K | 21.19
48.19 K | 22.54
52.48 K | 23.47
56.77 K | 24.17
61.06 K | 24.73
65.35 K | 25.19
69.65 K | 25.58
73.95 K | 25.83
78.25 K | 25.98
82.54 K | 26.16
86.85 K | 26.23
91.14 K | 26.36
95.45 K | 26.37
99.73 K | 26.49
104 K | 26.61
108.3 K | 26.65
112.6 K | 26.74
116.9 K | 26.72
121.2 K | 26.78
125.5 K | 26.72
129.8 K | 26.67
134 K | 26.77
138.3 K | 26.81
142.6 K | 26.97
146.8 K | 26.95
151.1 K | 27.04
155.4 K | 27.01
159.7 K | 26.93
164 K | 26.99
168.3 K | 27.12
172.6 K | 27.08
176.9 K | 27.2
181.2 K | 27.26
185.5 K | 27.14
189.8 K | 27.14
194.1 K | 27.14
198.3 K | 27.21
202.6 K | 27.44
206.9 K | 27.36
211.2 K | 27.35
215.5 K | 27.48
219.8 K | 27.48
224.1 K | 27.64
228.4 K | 27.65
232.7 K | 27.61
237 K | 27.52
241.3 K | 27.5
245.6 K | 27.95
249.8 K | 27.71
254.1 K | 27.92
258.4 K | 27.8
262.7 K | 27.77
267 K | 27.72
271.3 K | 28.15
275.6 K | 27.76
279.9 K | 28.06
284.2 K | 28.25
288.5 K | 28.11
292.8 K | 28.27
297.1 K | 28.29
301.5 K | 28.22
